Source: patent publication US20070059769A1, “High throughput glycan microarrays” (priority 2004, published 2007)
Like-named read-outs stand apart in the source and are kept apart here.

How the values were obtained:
β3GlcNAcT = β3GlcNAcT acceptor specificity; details: acceptor substrate; lactose (4) = 100%
Protocol: Both enzymes, β4GalT-GalE and β3GlcNAcT, were over expressed in E. coli AD202 in a large-scale fermentor (100 L). Bacteria were cultured in 2YT medium and induced with iso-propyl-thiogalactopyranoside (IPTG) to ultimately produce 8-10 g of bacterial cell paste/L cell media. The enzymes were then released from the cells by a microfluidizer and were solubilized in Tris buffer (25 mM, pH 7.5) containing manganese chloride (10 mM) and Triton X (0.25%) to reach enzymatic activities of about 50 U/L and 115 U/L of cell culture β4GalT-GalE and β3GlcNAcT, respectively.

chST6GalNAc-I = molecular target: T1, chST6GalNAc-I (Gallus gallus, UniProt Q92183); experiment: chST6GalNAc-I activity on small acceptor molecules; type: biochemical, chicken; details: α-D-galacto derivative as acceptor
T1 construct: made in house; host or cells: insect cells
Source text: The inventors have previously reported the cloning, expression, and characterization of chicken ST6GalNAc-I and its use in preparative synthesis of the O-linked sialoside antigens, STn-, α(2-6)SiaT-, α(2-3)SiaT- and Di-SiaT-antigen. Blixt, O.; Allin, K.; Pereira, L.; Datta, A. and Paulson, J. C., J. Am. Chem. Soc. 2002, 124, 5739-5746. Briefly, the recombinant enzyme was expressed in insect cells and purified by CDP-sepharose affinity chromatography to generate approximately 10 U/L of cell culture.

[1] = test system: anti-carbohydrate antibodies in sera of metastatic breast cancer patients; experiment: glycan array binding of antibodies in sera of metastatic breast cancer patients; parameters: species or system human; details: sera diluted 1:25
Protocol: Individual (not pooled) sera were collected from 9 patients who were diagnosed with metastatic breast cancer (MBC). Blood samples were collected before treatment, so that therapeutic intervention would not interfere with patient immune responses. One patient with breast cancer but with good prognosis (IDC, Stage 1) was also included in the study. As control, or “healthy” sera, sera from ten healthy individuals, 5 female and 5 male, with no known malignancies was collected.
(§1) Sera were diluted 1:25 with PBS containing 3% BSA, and placed on the glycan array slide in humidified chamber at room temperature for 90 min. The glycan array slide was then rinsed gently with PBS/0.05% Tween, incubated with biotinylated goat antibody against human IgG, IgM and IgA, rinsed in PBS/0.05% Tween, and incubated with streptavidin-Alexa488 fluorescent dye. Following rinses in PBS/0.05% Tween and H2O, glycan array slides were dried and scanned using the commercial DNA array scanner. […] Signal to background was typically greater 50:1 and no background subtractions were performed. Data were plotted using MS Excel software.

[2] = test system: serum antibodies of xenotransplant recipients; experiment: glycan array binding of antibodies in sera of recipients of porcine fetal pancreas islet-like cell clusters; parameters: species or system human; details: before and 1, 6, 12 months after transplantation
Protocol: In 1991-1994, several diabetic (I) patients received transplantation of porcine fetal pancreas islet-like cell clusters (ICC). See, Groth, C. G. et al. Transplantation of porcine fetal pancreas to diabetic patients, The Lancet 344: 1402-4 (1994). The inventor analyzed serum from three of these patients before transplant (t=0), 1 months after (t=1), 6 months after (t=2) and 12 months after (t=3) transplant.
as §1, with “as needed” for “1:25”

2G12 = experiment: glycan array binding of anti-HIV 2G12 monoclonal antibody; parameters: species or system human
Concanavalin A = Concanavalin A (Canavalia ensiformis, UniProt P02866); details: printing times up to 5 hours
Protocol: Glycan Binding Protein binding assay. Printed slides were analyzed without any further modification of the surface. […] GBP's were added at a concentration of 5-50 μg/mL in buffer (usually PBS containing 0.005-0.5% Tween-20). […] Slides were subsequently washed by successive rinses in (i) PBS-Tween (0.05%), (ii) PBS and (iii) de-ionized water, then immediately subjected to imaging.
Image acquisition and signal processing. Fluorescence intensities were detected using a ScanArray 5000 (Perkin Elmer, Boston, Mass.) confocal scanner and image analyses were carried out using ImaGene image analysis software (BioDiscovery Inc, El Segundo, Calif.). Signal to background was typically greater than 50:1 and no background subtractions were performed.
Binding of fluorescein-labeled concanavalin A (con A) was used as a measure of ligand coupling.

T1 sequence (Q92183 whole entry): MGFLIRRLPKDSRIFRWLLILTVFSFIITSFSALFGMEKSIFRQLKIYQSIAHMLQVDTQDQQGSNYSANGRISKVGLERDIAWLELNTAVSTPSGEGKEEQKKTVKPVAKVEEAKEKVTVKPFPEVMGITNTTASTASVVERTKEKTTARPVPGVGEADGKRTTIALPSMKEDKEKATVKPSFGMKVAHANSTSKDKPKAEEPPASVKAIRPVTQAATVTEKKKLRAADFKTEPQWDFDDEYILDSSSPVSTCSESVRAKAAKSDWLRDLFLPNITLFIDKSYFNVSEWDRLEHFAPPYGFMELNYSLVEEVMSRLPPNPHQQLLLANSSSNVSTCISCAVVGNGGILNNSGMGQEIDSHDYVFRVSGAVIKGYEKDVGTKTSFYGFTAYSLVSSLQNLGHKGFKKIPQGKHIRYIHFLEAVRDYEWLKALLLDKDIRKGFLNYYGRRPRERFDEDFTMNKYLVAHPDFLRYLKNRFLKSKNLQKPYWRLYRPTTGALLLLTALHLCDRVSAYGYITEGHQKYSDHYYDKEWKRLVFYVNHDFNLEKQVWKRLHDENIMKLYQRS

In the case of `OCC1O[C@@H](O)C(O)[C@@H](O)[C@@H]1O[C@@H]1OC(CO)[C@H](O)[C@H](O)C1O` (stereo partly shown) [Acceptor 4, Galβ(1-4)Glc], the “Relative enzyme activity (%) β(1-3)GlcNAcT-activity” value (β3GlcNAcT) is reported as 100%.

`O=[N+]([O-])c1ccc(O[C@@H]2OC(CO)[C@@H](O[C@@H]3OC(CO)[C@H](O)[C@H](O)C3O)[C@H](O)C2O)cc1` (stereo partly shown) [Compound 5] was tested, and the “Relative enzyme activity (%) β(1-3)GlcNAcT-activity” value (β3GlcNAcT) was 945%.

`CC(=O)N[C@H]1C(O)O[C@H](CO)[C@H](O)[C@@H]1O` (stereo partly drawn) [D-GalNAc] was tested, and the “chST6GalNAc-I activity, cpm” value (chST6GalNAc-I) was 0 cpm and the “chST6GalNAc-I activity, nmol/mg × min^−1” value (chST6GalNAc-I) was 0.00 nmol/mg × min^−1.

In the case of `CC(=O)N[C@H]1[C@H](O[C@H]2[C@@H](O)[C@@H](CO)O[C@@H](O[C@H]3[C@H](O)[C@@H](O)C(O)O[C@@H]3CO)[C@@H]2O)O[C@H](CO)[C@@H](O)[C@@H]1O` (stereo partly drawn) [LNT-2, GlcNAc-beta3-Gal-beta4-Glc-beta], the “binding by / level of serum antibodies in metastatic breast cancer patients versus healthy individuals” value [1] is reported as “bind and higher than in the healthy individuals”.

For “Fucose-alpha2-Gal-beta3-GalNAc-beta3-Gal-alpha4-Gal-beta4-Glc [Globo-H]”, the “binding by / level of serum antibodies in metastatic breast cancer patients versus healthy individuals” value [1] was “bind and higher than in the healthy individuals”.

In the case of “Gal-beta3-GalNAc-beta4-[Neu5Ac-alpha3]-Gal-beta4-Glc-beta [GM1]”, the “binding by / level of serum antibodies in metastatic breast cancer patients versus healthy individuals” value [1] is reported as “bind and higher than in the healthy individuals”.

In the case of “Galα1-3Galβ1-4(Fucα1-3)GlcNAcβSp [Glycan 34]”, the “reactivity of serum antibodies of xenotransplant recipients” value [2] is reported as “clearly exhibit an immune response”.

Galβ1-4(Fucα1-3)GlcNAcβSp [Glycan 65] was tested, and the “reactivity of serum antibodies of xenotransplant recipients” value [2] was “do not have antibodies”.

For Galβ(1-4)GlcNAc [Acceptor 6], the “Relative enzyme activity (%) β(1-3)GlcNAcT-activity” value (β3GlcNAcT) was 7-8%.

With “Manα1-2Manα1-2Manα1-3(Manα1-2Manα1-3(Manα1-2Manα1-6)Manα1-6)Manβ1-4GlcNAcβ1-4GlcNAcβSp [Glycan 145]” the “binding of 2G12” value (2G12; listed as Man9) was “relatively weakly bound” and the “binding of 2G12” value (2G12; listed as Man-9-N-glycans) was “smaller level of binding”.

For “Manα1-2Manα1-3(Manα1-2Manα1-6)ManαSp [Glycan 136]”, the “binding of 2G12” value (2G12) was “strong binding”, the “Rel. spec. (relative binding activity of 2G12)” value (2G12; 2G12 30 μg/mL pre-complexed with goat anti-human-IgG-FITC) was “+++ (+++ >25,000)” and the “variation in maximal binding of con A” value (Concanavalin A) was “less than 10%”.

With “Manα1-2Manα1-6(Manα1-3)Manα1-6(Manα1-2Manα1-3)Manβ1-4GlcNAcβ1-4GlcNAcβSp [Glycan 144]” the “binding of 2G12” value (2G12) was “strong preference”.

In the case of “Manα1-3Manα1-6(Manα1-2Manα1-3)Manβ1-4GlcNAcβ1-4GlcNAcβSp [Glycan 140]”, the “binding of 2G12” value (2G12) is reported as “did not support binding at all”.

For “Manα1-6(Manα1-2Manα1-3)Manα1-6(Manα1-2Manα1-3)Manβ1-4GlcNAcβ1-4GlcNAcβSp [Glycan 143]”, the “binding of 2G12” value (2G12) was “did not support binding at all”.

For “Manα1-6(Manα1-3)Manα1-6(Manα1-2Manα1-3)Manβ1-4GlcNAcβ1-4GlcNAcβSp [Glycan 142]”, the “binding of 2G12” value (2G12) was “did not support binding at all”.

In the case of Neu5Acα2-6GalNAcα-, the “binding by / level of serum antibodies in metastatic breast cancer patients versus healthy individuals” value [1] is reported as “significantly higher levels”.

For Neu5Gc(2-6)GalNAc, the “binding by / level of serum antibodies in metastatic breast cancer patients versus healthy individuals” value [1] was “bind”.

B1: Ceruloplasmine (protein, UniProt P00450 20-1065, looked up)
Ceruloplasmin: KEKHYYIGIIETTWDYASDHGEKKLISVDTEHSNIYLQNGPDRIGRLYKKALYLQYTDETFRTTIEKPVWLGFLGPIIKAETGDKVYVHLKNLASRPYTFHSHGITYYKEHEGAIYPDNTTDFQRADDKVYPGEQYTYMLLATEEQSPGEGDGNCVTRIYHSHIDAPKDIASGLIGPLIICKKDSLDKEKEKHIDREFVVMFSVVDENFSWYLEDNIKTYCSEPEKVDKDNEDFQESNRMYSVNGYTFGSLPGLSMCAEDRVKWYLFGMGNEVDVHAAFFHGQALTNKNYRIDTINLFPATLFDAYMVAQNPGEWMLSCQNLNHLKAGLQAFFQVQECNKSSSKDNIRGKHVRHYYIAAEEIIWNYAPSGIDIFTKENLTAPGSDSAVFFEQGTTRIGGSYKKLVYREYTDASFTNRKERGPEEEHLGILGPVIWAEVGDTIRVTFHNKGAYPLSIEPIGVRFNKNNEGTYYSPNYNPQSRSVPPSASHVAPTETFTYEWTVPKEVGPTNADPVCLAKMYYSAVEPTKDIFTGLIGPMKICKKGSLHANGRQKDVDKEFYLFPTVFDENESLLLEDNIRMFTTAPDQVDKEDEDFQESNKMHSMNGFMYGNQPGLTMCKGDSVVWYLFSAGNEADVHGIYFSGNTYLWRGERRDTANLFPQTSLTLHMWPDTEGTFNVECLTTDHYTGGMKQKYTVNQCRRQSEDSTFYLGERTYYIAAVEVEWDYSPQREWEKELHHLQEQNVSNAFLDKGEFYIGSKYKKVVYRQYTDSTFRVPVERKAEEEHLGILGPQLHADVGDKVKIIFKNMATRPYSIHAHGVQTESSTVTPTLPGETLTYVWKIPERSGAGTEDSACIPWAYYSTVDQVKDLYSGLIGPLIVCRRPYLKVFNPRRKLEFALLFLVFDENESWYLDDNIKTYSDHPEKVNKDDEEFIESNKMHAINGRMFGNLQGLTMHVGDEVNWYLMGMGNEIDLHTVHFHGHSFQYKHRGVYSSDVFDIFPGTYQTLEMFPRTPGIWLLHCHVTDHIHAGMETTYTVLQNEDTKSG
modifications: N-glycans
notes: mixture of bi and tri- and tetra-antenary N-glycans
For B1, the “binding by / level of serum antibodies in metastatic breast cancer patients versus healthy individuals” value [1] was “bind and significantly higher levels”.
